Literature values in patent US9199951B2, “Process for the manufacture of a 1,2-epoxide” (Hexion Inc., priority 2008, dated 2015).
Converted amounts (≈) assume the structure as drawn.

Settings: grams per liter water at 20° C.; for Solubility in water: terminal olefins of Table 2

## C=CCCCCCC [1-octene]
  Solubility in water: 0.27 µg/mL (≈ 2.41 µM)

## C=CCOC(C)=O [Allyl acetate]
  solubility: about 10 g/L
  Solubility in water: ~10000 µg/mL

## C=CCO [Allyl alcohol]
  Solubility in water: miscible

## C=CCCl [Allyl chloride]
  solubility: 3600 µg/mL
  Solubility in water: 3600 µg/mL

## C=CCBr [allyl bromide]
  solubility: 4000 µg/mL
